Results from patent US6858591B2, “Antibiotic AA 896 analogs” (Wyeth Holdings Corporation, priority 2001, dated 2005).
Like-named read-outs stand apart in the source and are kept apart here.

Legend:
Experiment in all cases: In vitro MIC, broth dilution
Assay type in all cases: cell-based
M. morganii GC 4531 = conditions: Morganella morganii, GC4531; M. morganii GC 4531; read-out: MIC
P. aeruginosa GC 4532 = conditions: Pseudomonas aeruginosa, GC4532; P. aeruginosa GC 4532; read-out: MIC
P. aeruginosa GC 2214 = conditions: Pseudomonas aeruginosa, GC2214; P. aeruginosa GC 2214; read-out: MIC
E. cloacae GC 3783 = conditions: Enterobacter cloacae, GC3783; E. cloacae GC 3783; read-out: MIC
E. coli GC 4560 = conditions: Escherichia coli, GC4560; E. coli GC 4560; read-out: MIC
E. coli GC 3226 = conditions: Escherichia coli, GC3226; E. coli GC 3226; read-out: MIC
E. coli GC 4559 = conditions: Escherichia coli, GC4559; E. coli GC 4559; read-out: MIC
S. marcescens GC 4077 = conditions: Serratia marcescens, GC4077; S. marcescens GC 4077; read-out: MIC
K. pneumoniae GC 4534 = conditions: Klebsiella pneumoniae, GC4534; K. pneumoniae GC 4534; read-out: MIC
C. albicans GC 3066 = conditions: Candida albicans, GC3066; C. albicans GC 3066; read-out: MIC
E. coli GC 2203 = conditions: Escherichia coli, GC2203; E. coli GC 2203; read-out: MIC
E. faecalis GC 2242 = conditions: Enterococcus faecalis, GC2242; E. faecalis GC 2242; read-out: MIC
In short: (§1)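 MIC = lowest antibiotic concentration preventing visible growth after 18 h at 35 °C, ambient air. Inoculum 5×10^5 CFU/ml; drug tested 64-0.06 μg/ml in Mueller-Hinton II broth following NCCLS guidance.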

E. faecalis GC 4555 = conditions: Enterococcus faecalis, GC4555; E. faecalis GC 4555; read-out: MIC
In short: as §1

S. aureus GC 1131 = conditions: Staphylococcus aureus, GC1131; S. aureus GC 1131; read-out: MIC
In short: as §1

S. aureus GC 4536 = conditions: Staphylococcus aureus, GC4536; S. aureus GC 4536; read-out: MIC
In short: as §1

S. aureus GC 2216 = conditions: Staphylococcus aureus, GC2216; S. aureus GC 2216; read-out: MIC
In short: as §1

E. faecalis GC 842 = conditions: Enterococcus faecalis, GC842; E. faecalis GC 842; read-out: MIC
In short: as §1

CNS GC 4547 = test system: CNS GC 4547
In short: as §1

CNS GC 4538 = test system: CNS GC 4538
In short: as §1

CNS GC 4537 = test system: CNS GC 4537
In short: as §1

Compound | MIC (M. morganii GC 4531) | MIC (P. aeruginosa GC 4532) | MIC (P. aeruginosa GC 2214) | MIC (E. cloacae GC 3783) | MIC (E. coli GC 4560) | MIC (E. coli GC 3226) | MIC (E. coli GC 4559) | MIC (S. marcescens GC 4077) | MIC (K. pneumoniae GC 4534) | MIC (C. albicans GC 3066) | MIC (E. coli GC 2203) | MIC (E. faecalis GC 2242) | MIC (E. faecalis GC 4555) | MIC (S. aureus GC 1131) | MIC (S. aureus GC 4536) | MIC (S. aureus GC 2216) | MIC (E. faecalis GC 842) | MIC (CNS GC 4547; CNS GC 4547, read-out: MIC) | MIC (CNS GC 4538; CNS GC 4538, read-out: MIC) | MIC (CNS GC 4537; CNS GC 4537, read-out: MIC) | other results
CCOC(=O)C(NCCCNC(=O)[C@@H](NC(=O)[C@H](CCCNC(=N)N[N+](=O)O)NC(=O)N[C@H](C(=O)OCc1ccccc1)C(C)C)[C@@H](O)C(C)C)C(O)[C@H]1O[C@@H](n2ccc(=O)[nH]c2=O)[C@H](OC(C)=O)[C@@H]1OC(C)=O (stereo partly drawn) [Example 37, 16-Benzyl 2-ethyl (1R,9S,12S,16S)-1-[(2R,3R,4R,5R)-3,4-bis(acetyloxy)-5-(2,4-dioxo-3,4-dihydro-1(2H)-pyrimidinyl)tetrahydro-2-furanyl]-12-(3-{[(2,2-dioxido-2lambda˜1˜-diazanyl)(imino)methyl]amino}propyl)-1-hydroxy-9-[(1S)-hydroxy-2-methylpropyl]-17-methyl-8,11,14-trioxo-3,7,10,13,15-pentaazaoctadecane-2,16-dicarboxylate] | > 128 µg/mL | > 128 µg/mL | > 128 µg/mL | > 128 µg/mL | > 128 µg/mL | > 128 µg/mL | > 128 µg/mL | > 128 µg/mL | > 128 µg/mL | > 128 µg/mL | > 128 µg/mL | 128 µg/mL | > 128 µg/mL | > 128 µg/mL | > 128 µg/mL | > 128 µg/mL | > 128 µg/mL |  |  |  | MIC (CNS GC 4547): > 128 µg/mL; MIC (CNS GC 4538): > 128 µg/mL; MIC (CNS GC 4537): > 128 µg/mL
CCOC(=O)C(NCCCNC(=O)[C@H](CC(C)C)NC(=O)OCc1ccccc1)C(OC(C)=O)[C@H]1O[C@H](n2ccc(=O)[nH]c2=O)[C@H](OC(C)=O)[C@@H]1OC(C)=O (stereo partly drawn) [Example 38a, Ethyl (5S)-12-{(R)-(acetyloxy)[(2R,3R,4R,5S)-3,4-bis(acetyloxy)-5-(2,4-dioxo-3,4-dihydro-1(2H)-pyrimidinyl)tetrahydro-2-furanyl]methyl}-5-isobutyl-3,6-dioxo-1-phenyl-2-oxa-4,7,11-triazatridecan-13-oate] | > 128 µg/mL | > 128 µg/mL | > 128 µg/mL | > 128 µg/mL | > 128 µg/mL | > 128 µg/mL | > 128 µg/mL | > 128 µg/mL | > 128 µg/mL | > 128 µg/mL | > 128 µg/mL | > 128 µg/mL | > 128 µg/mL | > 128 µg/mL | > 128 µg/mL | > 128 µg/mL | > 128 µg/mL | > 128 µg/mL | > 128 µg/mL | > 128 µg/mL | 
CCOC(=O)C(NCCCNC(=O)[C@H](CC(C)C)NC(=O)OCc1ccccc1)C(OC(C)=O)[C@H]1O[C@@H](n2ccc(=O)[nH]c2=O)[C@H](OC(C)=O)[C@@H]1OC(C)=O (stereo partly drawn) [Example 38b, Ethyl (5S)-12-{(R)-(acetyloxy)[(2R,3R,4R,5R)-3,4-bis(acetyloxy)-5-(2,4-dioxo-3,4-dihydro-1(2H)-pyrimidinyl)tetrahydro-2-furanyl]methyl}-5-isobutyl-3,6-dioxo-1-phenyl-2-oxa-4,7,11-triazatridecan-13-oate] | > 128 µg/mL | > 128 µg/mL | > 128 µg/mL | > 128 µg/mL | > 128 µg/mL | > 128 µg/mL | > 128 µg/mL | > 128 µg/mL | > 128 µg/mL | > 128 µg/mL | > 128 µg/mL | > 128 µg/mL | > 128 µg/mL | > 128 µg/mL | > 128 µg/mL | > 128 µg/mL | > 128 µg/mL | > 128 µg/mL | > 128 µg/mL | > 128 µg/mL | 
